According to ChEMBL document CHEMBL1125575, “2-[(2-pyridylmethyl)sulfinyl]-1H-thieno[3,4-d]imidazoles. A novel class of gastric H+/K(+)-ATPase inhibitors” (J Med Chem, 1992):

How the values were obtained:
Oryctolagus cuniculus [1] = organism: Oryctolagus cuniculus; experiment: cells; type: functional, organism-based, Stomach
Description: In vitro inhibition of 14C amino-pyrine uptake was determined in isolated rabbit gastric glands after dbcAMP stimulation

Canis familiaris [2] = organism: Canis familiaris; experiment: animal or person; conditions: Canis lupus familiaris, Stomach, intraduodenal, read-out: Inhibition
Rattus norvegicus [3] = organism: Rattus norvegicus; experiment: animal or person; conditions: Stomach, iv, read-out: Inhibition
animal or person = conditions: Canis lupus familiaris, Stomach, iv, read-out: Inhibition
Oryctolagus cuniculus [4] = organism: Oryctolagus cuniculus; experiment: In vitro inhibition of 14C amino pyrine uptake was determined in isolated rabbit gastric glands after dbcAMP stimulation; type: functional; conditions: Stomach
Canis familiaris [5] = experiment: In vivo inhibition of gastric acid secretion was calculated in heidenhain-pouch dog after iv administration of the drug at a dose of 0.3 mg/kg; type: functional; conditions: Canis lupus familiaris, Stomach
[6] = Chemical stability at pH 2.0; type: physicochemical; conditions: buffer
[7] = Chemical stability at pH 5.0; type: physicochemical; conditions: buffer
[8] = Chemical stability at pH 7.0; type: physicochemical; conditions: buffer
Canis familiaris [9] = experiment: Antisecretory activity calculated in heidenhain-pouch dog after id administration of the drug, value in parenthesis indicates 95% confidence limits; type: functional; conditions: Canis lupus familiaris
Canis familiaris [10] = organism: Canis familiaris; experiment: animal or person; conditions: Canis lupus familiaris, iv
[11] = target: Potassium-transporting ATPase alpha chain 1 (Sus scrofa, UniProt P19156)
Description: In vitro inhibitory concentration against H+/K+ ATPase from pig stomach by probit analysis

[12] = target: Potassium-transporting ATPase alpha chain 1 (Sus scrofa) (UniProt P19156); experiment: Inhibition of H+/K+ ATPase from pig stomach; type: tissue-based; conditions: concentration not given here
Canis familiaris [13] = experiment: Antisecretory activity calculated in heidenhain-pouch dog after id administration of the drug; type: functional; conditions: Canis lupus familiaris
Canis familiaris [14] = experiment: Antisecretory activity calculated in heidenhain-pouch dog after iv administration of the drug, values in parenthesis indicates 95% confidence limits; type: functional; conditions: Canis lupus familiaris
Canis familiaris [15] = experiment: In vivo inhibition of gastric acid secretion was calculated in heidenhain-pouch dog after iv administration of the drug at a dose of 0.5 mg/kg; type: functional; conditions: Canis lupus familiaris, Stomach
Rattus norvegicus [16] = experiment: In vivo inhibition of gastric acid secretion was calculated in stomach-lumen perfused rat after iv administration of drug at a dose of 5 mg/kg; type: functional

Sequence of Potassium-transporting ATPase alpha chain 1 (P19156 whole entry): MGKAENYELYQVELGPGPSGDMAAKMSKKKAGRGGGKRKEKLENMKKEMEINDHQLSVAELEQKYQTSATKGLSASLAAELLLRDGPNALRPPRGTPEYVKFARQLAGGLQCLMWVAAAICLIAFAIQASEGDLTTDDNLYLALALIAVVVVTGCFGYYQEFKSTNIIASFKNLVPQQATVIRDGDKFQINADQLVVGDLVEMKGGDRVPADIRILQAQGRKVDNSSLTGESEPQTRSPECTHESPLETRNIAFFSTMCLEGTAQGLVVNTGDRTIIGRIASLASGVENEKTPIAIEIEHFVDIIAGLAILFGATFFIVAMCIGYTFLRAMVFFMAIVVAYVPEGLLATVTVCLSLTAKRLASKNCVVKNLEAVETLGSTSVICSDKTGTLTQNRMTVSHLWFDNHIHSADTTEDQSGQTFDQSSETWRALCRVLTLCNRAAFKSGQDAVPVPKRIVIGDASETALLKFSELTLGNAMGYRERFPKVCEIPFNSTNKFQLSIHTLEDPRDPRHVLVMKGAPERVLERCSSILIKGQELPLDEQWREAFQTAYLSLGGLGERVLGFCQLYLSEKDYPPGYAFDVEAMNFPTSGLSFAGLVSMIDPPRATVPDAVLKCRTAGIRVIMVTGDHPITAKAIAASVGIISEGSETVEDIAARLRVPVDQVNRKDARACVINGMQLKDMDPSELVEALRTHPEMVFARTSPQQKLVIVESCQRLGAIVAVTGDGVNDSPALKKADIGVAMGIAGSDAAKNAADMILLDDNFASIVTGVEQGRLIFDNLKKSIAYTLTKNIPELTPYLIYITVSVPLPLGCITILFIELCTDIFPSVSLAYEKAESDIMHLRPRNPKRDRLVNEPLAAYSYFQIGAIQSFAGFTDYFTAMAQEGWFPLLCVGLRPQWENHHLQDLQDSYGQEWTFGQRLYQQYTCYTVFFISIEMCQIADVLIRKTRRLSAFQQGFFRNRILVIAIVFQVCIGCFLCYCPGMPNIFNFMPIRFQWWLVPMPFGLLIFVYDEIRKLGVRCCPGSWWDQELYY
Sequence of Potassium-transporting ATPase alpha chain 1 (Sus scrofa) (P19156 whole entry): as above
Description for physchem: pKa value of the compound

Compound: [O-][S+](Cc1cc(OCc2ccc(C(F)(F)F)cc2)ccn1)c1nc2cscc2[nH]1 (stereo unspecified)
- IC50 (Oryctolagus cuniculus [1]; Stomach): 600 nM
- pKa (physchem): 3.74
- inhibition in vivo at 1 mg/kg (Canis familiaris [2]): 94%
- inhibition in vivo at 0.5 mg/kg (Rattus norvegicus [3]): 80%

Compound: COc1cc(C[S+]([O-])c2nc3cscc3[nH]2)ncc1Br (stereo unspecified)
- IC50 (Oryctolagus cuniculus [1]; Stomach): 19000 nM
- inhibition in vivo at 1 mg/kg (Canis familiaris [2]): 53%
- inhibition in vivo at 0.3 mg/kg (animal or person): 59%
- inhibition in vivo at 0.5 mg/kg (Rattus norvegicus [3]): 62%

Compound: COc1ccnc(C[S+]([O-])c2nc3cscc3[nH]2)c1Br (stereo unspecified)
- IC50 (Oryctolagus cuniculus [1]; Stomach): 2000 nM
- pKa (physchem): 3.52
- inhibition in vivo at 1 mg/kg (Canis familiaris [2]): -11%
- inhibition in vivo at 0.3 mg/kg (animal or person): 73%
- inhibition in vivo at 0.5 mg/kg (Rattus norvegicus [3]): 71%

Compound: COc1c(OCc2ccc(F)cc2)ccnc1C[S+]([O-])c1nc2cscc2[nH]1 (stereo unspecified)
- IC50 (Oryctolagus cuniculus [1]; Stomach): 300 nM
- inhibition in vivo at 1 mg/kg (Canis familiaris [2]): 76%
- inhibition in vivo at 0.3 mg/kg (animal or person): 73%
- inhibition in vivo at 0.5 mg/kg (Rattus norvegicus [3]): 78%

Compound: COc1cccnc1C[S+]([O-])c1nc2cscc2[nH]1 (stereo unspecified)
- IC50 (Oryctolagus cuniculus [4]): 290000 nM
- inhibition in vivo at 0.5 mg/kg (Rattus norvegicus [3]): 59%

Compound: Cc1c(OCC(F)(F)F)ccnc1C[S+]([O-])c1nc2cscc2[nH]1 (stereo unspecified)
- IC50 (Oryctolagus cuniculus [1]; Stomach): 21000 nM
- inhibition in vivo at 0.3 mg/kg (Canis familiaris [5]): 57%
- inhibition in vivo at 0.5 mg/kg (Rattus norvegicus [3]): 56%

Compound: CCOc1ccnc(C[S+]([O-])c2nc3cscc3[nH]2)c1 (stereo unspecified)
- IC50 (Oryctolagus cuniculus [1]; Stomach): 3000 nM
- pKa (physchem): 3.92

Compound: Cc1c(OCC(F)(F)C(F)(F)F)ccnc1C[S+]([O-])c1nc2cscc2[nH]1 (stereo unspecified)
- IC50 (Oryctolagus cuniculus [1]; Stomach): 500 nM
- inhibition in vivo at 1 mg/kg (Canis familiaris [2]): 45%
- inhibition in vivo at 0.3 mg/kg (animal or person): 64%
- inhibition in vivo at 0.5 mg/kg (Rattus norvegicus [3]): 72%

Compound: COc1c(OCC(F)(F)C(F)(F)F)ccnc1C[S+]([O-])c1nc2cscc2[nH]1 (stereo unspecified)
- half-life [6]: 0.183 h
- half-life [7]: 7.8 h
- half-life [8]: 23 h
- ED50 (Canis familiaris [9]): 0.16 mg/kg
- IC50 (Oryctolagus cuniculus [1]; Stomach): 1000 nM
- ED50 (Canis familiaris [10]): 0.13 mg/kg
- inhibition in vivo at 1 mg/kg (Canis familiaris [2]): 95%
- inhibition in vivo at 0.3 mg/kg (animal or person): 74%
- inhibition in vivo at 0.5 mg/kg (Rattus norvegicus [3]): 57%

Compound: [O-][S+](Cc1cc(OCC(F)(F)F)ccn1)c1nc2cscc2[nH]1 (stereo unspecified)
- IC50 (Oryctolagus cuniculus [1]; Stomach): 3000 nM
- pKa (physchem): 3.83
- inhibition in vivo at 1 mg/kg (Canis familiaris [2]): 73%
- inhibition in vivo at 0.3 mg/kg (animal or person): 62%
- inhibition in vivo at 0.5 mg/kg (Rattus norvegicus [3]): 96%

Compound: Cc1sc(C)c2[nH]c([S+]([O-])Cc3cc(OCC(F)(F)F)ccn3)nc12 (stereo unspecified)
- IC50 (Oryctolagus cuniculus [1]; Stomach): 3700 nM
- IC50 [11]: 2000 nM
- inhibition in vivo at 0.3 mg/kg (animal or person): 54%

Compound: [O-][S+](Cc1cc(Oc2ccc(F)cc2)ccn1)c1nc2cscc2[nH]1 (stereo unspecified)
- IC50 (Oryctolagus cuniculus [1]; Stomach): 4000 nM
- inhibition in vivo at 1 mg/kg (Canis familiaris [2]): 97%
- inhibition in vivo at 0.3 mg/kg (animal or person): 85%
- inhibition in vivo at 0.5 mg/kg (Rattus norvegicus [3]): 84%

Compound: COc1c(Cl)cnc(C[S+]([O-])c2nc3cscc3[nH]2)c1C (stereo unspecified)
- inhibition [12]: -5%
- IC50 (Oryctolagus cuniculus [1]; Stomach): 230000 nM
- inhibition in vivo at 1 mg/kg (Canis familiaris [2]): 24%
- inhibition in vivo at 0.5 mg/kg (Rattus norvegicus [3]): 43%

Compound: COc1ccnc(C[S+]([O-])c2nc3cscc3[nH]2)c1 (stereo unspecified)
- IC50 (Oryctolagus cuniculus [1]; Stomach): 19000 nM
- pKa (physchem): 4.16
- inhibition in vivo at 0.3 mg/kg (animal or person): 84%
- inhibition in vivo at 0.5 mg/kg (Rattus norvegicus [3]): 82%

Compound: COc1c(OCC(F)(F)C(F)F)ccnc1C[S+]([O-])c1nc2cscc2[nH]1 (stereo unspecified)
- IC50 (Oryctolagus cuniculus [1]): 600 nM
- IC50 [11]: 3000 nM
- inhibition in vivo at 1 mg/kg (Canis familiaris [2]): 47%
- inhibition in vivo at 0.3 mg/kg (animal or person): 58%
- inhibition in vivo at 0.5 mg/kg (Rattus norvegicus [3]): 79%

Compound: COc1c(OCC(F)(F)C(F)(F)C(F)(F)C(F)F)ccnc1C[S+]([O-])c1nc2cscc2[nH]1 (stereo unspecified)
- IC50 (Oryctolagus cuniculus [1]; Stomach): 1000 nM
- IC50 [11]: 12000 nM
- inhibition in vivo at 1 mg/kg (Canis familiaris [2]): 63%
- inhibition in vivo at 0.5 mg/kg (Rattus norvegicus [3]): 64%

Compound: COc1ccnc(C[S+]([O-])c2nc3cscc3[nH]2)c1OC(F)(F)C(F)F (stereo unspecified)
- IC50 (Oryctolagus cuniculus [1]; Stomach): 3000 nM
- inhibition in vivo at 1 mg/kg (Canis familiaris [2]): 14%
- inhibition in vivo at 0.3 mg/kg (animal or person): 65%
- inhibition in vivo at 0.5 mg/kg (Rattus norvegicus [3]): 51%

Compound: COc1c(Br)cnc(C[S+]([O-])c2nc3cscc3[nH]2)c1C (stereo unspecified)
- inhibition [12]: -5%
- IC50 (Oryctolagus cuniculus [1]; Stomach): 81000 nM
- inhibition in vivo at 0.5 mg/kg (Rattus norvegicus [3]): 37%

Compound: [O-][S+](Cc1nccc(OCC(F)(F)F)c1OCC(F)(F)F)c1nc2cscc2[nH]1 (stereo unspecified)
- IC50 (Oryctolagus cuniculus [1]; Stomach): 800 nM
- inhibition in vivo at 1 mg/kg (Canis familiaris [2]): 45%
- inhibition in vivo at 0.3 mg/kg (animal or person): 13%
- inhibition in vivo at 0.5 mg/kg (Rattus norvegicus [3]): 35%

Compound: COc1ccnc(C[S+]([O-])c2nc3cscc3[nH]2)c1Cl (stereo unspecified)
- IC50 (Oryctolagus cuniculus [1]; Stomach): 1000 nM
- pKa (physchem): 3.55
- ED50 (Canis familiaris [10]): 0.1 mg/kg
- inhibition in vivo at 1 mg/kg (Canis familiaris [2]): 36%
- inhibition in vivo at 0.3 mg/kg (animal or person): 82%
- inhibition in vivo at 0.5 mg/kg (Rattus norvegicus [3]): 71%

Compound: [O-][S+](Cc1cc(OC(C(F)(F)F)C(F)(F)F)ccn1)c1nc2cscc2[nH]1 (stereo unspecified)
- IC50 (Oryctolagus cuniculus [1]; Stomach): 195000 nM
- pKa (physchem): 3.5
- inhibition in vivo at 0.5 mg/kg (Rattus norvegicus [3]): 39%

Compound: [O-][S+](Cc1cc(OCC(F)(F)C(F)(F)C(F)(F)C(F)F)ccn1)c1nc2cscc2[nH]1 (stereo unspecified)
- IC50 (Oryctolagus cuniculus [1]; Stomach): 3000 nM
- IC50 [11]: 2000 nM

Compound: COc1cc(C[S+]([O-])c2nc3cscc3[nH]2)ncc1Cl (stereo unspecified)
- IC50 (Oryctolagus cuniculus [1]; Stomach): 31000 nM
- pKa (physchem): 3.44
- inhibition in vivo at 1 mg/kg (Canis familiaris [2]): 55%
- inhibition in vivo at 0.3 mg/kg (animal or person): 38%
- inhibition in vivo at 0.5 mg/kg (Rattus norvegicus [3]): 58%

Compound: COc1ccc2[nH]c([S+]([O-])Cc3ncc(C)c(OC)c3C)nc2c1 (stereo unspecified) [OMEPRAZOLE]
- half-life [6]: 12 h
- half-life [7]: 2.26 h
- half-life [8]: 17 h
- ED50 (Canis familiaris [13]): 0.25 mg/kg
- ED50 (Canis familiaris [10]): 0.1 mg/kg

Compound: COc1c(OCC(F)(F)C(F)(F)C(F)(F)F)ccnc1C[S+]([O-])c1nc2cscc2[nH]1 (stereo unspecified)
- IC50 (Oryctolagus cuniculus [1]): 1100 nM
- IC50 [11]: 7000 nM
- inhibition in vivo at 1 mg/kg (Canis familiaris [2]): 66%
- inhibition in vivo at 0.5 mg/kg (Rattus norvegicus [3]): 70%

Compound: [O-][S+](Cc1cc(OCC(F)(F)C(F)(F)C(F)(F)F)ccn1)c1nc2cscc2[nH]1 (stereo unspecified) [SAVIPRAZOLE]
- half-life [6]: 0.05 h
- half-life [7]: 1.4 h
- half-life [8]: 8 h
- ED50 (Canis familiaris [14]): 0.22 mg/kg
- IC50 (Oryctolagus cuniculus [1]; Stomach): 1300 nM
- pKa (physchem): 3.73
- inhibition in vivo at 1 mg/kg (Canis familiaris [2]): 93%
- inhibition in vivo at 0.3 mg/kg (animal or person): 76%
- inhibition in vivo at 0.5 mg/kg (Rattus norvegicus [3]): 72%

Compound: COc1c(OCC(F)(F)F)ccnc1C[S+]([O-])c1nc2cscc2[nH]1 (stereo unspecified)
- IC50 (Oryctolagus cuniculus [1]; Stomach): 2500 nM
- IC50 [11]: 4000 nM
- pKa (physchem): 3.52
- ED50 (Canis familiaris [10]): 0.08 mg/kg
- inhibition in vivo at 0.3 mg/kg (animal or person): 85%
- inhibition in vivo at 0.5 mg/kg (Rattus norvegicus [3]): 64%

Compound: [O-][S+](Cc1cc(OCC(F)(F)C(F)F)ccn1)c1nc2cscc2[nH]1 (stereo unspecified)
- IC50 (Oryctolagus cuniculus [1]; Stomach): 2000 nM
- inhibition in vivo at 1 mg/kg (Canis familiaris [2]): 91%
- inhibition in vivo at 0.3 mg/kg (animal or person): 66%
- inhibition in vivo at 0.5 mg/kg (Rattus norvegicus [3]): 89%

Compound: Cc1ccnc(C[S+]([O-])c2nc3cscc3[nH]2)c1 (stereo unspecified)
- inhibition in vivo at 0.5 mg/kg (Canis familiaris [15]): 72%
- inhibition in vivo at 5 mg/kg (Rattus norvegicus [16]): -67%

Compound: Cc1cnc(C[S+]([O-])c2nc3cscc3[nH]2)cc1OCC(F)(F)F (stereo unspecified)
- IC50 (Oryctolagus cuniculus [1]; Stomach): 1000 nM
- inhibition in vivo at 1 mg/kg (Canis familiaris [2]): 92%
- inhibition in vivo at 0.3 mg/kg (animal or person): 83%
- inhibition in vivo at 0.5 mg/kg (Rattus norvegicus [3]): 69%

Compound: [O-][S+](Cc1cc(OCc2ccc(F)cc2)ccn1)c1nc2cscc2[nH]1 (stereo unspecified)
- IC50 (Oryctolagus cuniculus [1]): 500 nM
- inhibition in vivo at 0.3 mg/kg (Canis familiaris [5]): 80%
- IC50 [11]: 500 nM
- inhibition in vivo at 0.5 mg/kg (Rattus norvegicus [3]): 85%

Compound: Cc1ccc(C[S+]([O-])c2nc3cscc3[nH]2)nc1 (stereo unspecified)
- IC50 (Oryctolagus cuniculus [1]; Stomach): 9000 nM
- pKa (physchem): 3.26
- ED50 (Canis familiaris [10]): 0.11 mg/kg
- inhibition in vivo at 0.3 mg/kg (animal or person): 72%
- inhibition in vivo at 0.5 mg/kg (Rattus norvegicus [3]): 78%
